This is an account of results in US20120122951A1 (priority 2009, published 2012).

Data set [1] relates to Mouse B16 melanoma cell. Nature of the data set: Quantification of the number of cells (alamarBlue), cell growth / cell toxicity. It is filed as cell-based. How it is done:
(§1) Mouse B16 melanoma cell was used. The cells were inoculated at 1×10^5 cells/well to a 6-well plate, and cultured with using a commercially available medium (trade name: EAGLE MEM, manufactured by Nissui Pharmaceutical Co., Ltd.) supplemented with 10% fetal bovine serum. The cells were cultured at 37° C., 5% CO2 and under completely saturated water-vapor atmosphere.
(§2) For determining the effect of hydroxyproline on cell growth and melanin content reduction, after culturing the cells for 24 hours, stock solutions of 4-trans-L-hydroxyproline, 4-trans-D-hydroxyproline, 4-cis-L-hydroxyproline or 4-cis-D-hydroxyproline were prepared and added in the same volume to the cells, further cultured for 3 days and used for the experiment. Meanwhile, as a control group, the same volume of water was added.
3 days after the addition of a solution of test compound, the medium was removed by suction. Eagle's-MEM containing the solution of 10% alamarBlue (trade name: BIOSOURCE, manufactured by Biosource International) was added and the reaction was allowed to occur at 37° C. Thirty minutes later, the fluorescence was measured with excitation wavelength of 544 nm and measurement wavelength of 590 nm. By having the obtained number as a relative value of the cell number, the ratio of number of cells (i.e. % number of cells) for a group added with the test compound compared to a group not added with the test compound (i.e. only the solvent was added) was calculated. Higher % number of cells indicates lower cell toxicity. When it is less than 80%, it was determined as “toxic.”
(§3) The equal amounts of 4-trans-L-hydroxyproline and 4-cis-D-hydroxyproline were mixed to produce the mixture solution of 4-trans-L-hydroxyproline and 4-cis-D-hydroxyproline, which was then provided for the experiments. Cell culture and quantification and evaluation of number of the cells and melanin were carried out in the same manner as the Examples above.
(§4) By using the mixture solution in which 4-trans-L-hydroxyproline and 4-cis-D-hydroxyproline were mixed at various ratio, test for determining cell growth and melanin content reduction was carried out. Cell culture and quantification and evaluation were carried out in the same manner as the Examples above.
(In general: Alamar Blue is a resazurin reagent that responds to reducing activity.)

Data set [2] has as its system Mouse B16 melanoma cell. Put plainly: Quantification of melanin (melanin content ratio, absorbance at 475 nm). It is filed as cell-based. The note with it: for effect on reducing melanin content (conclusion): 3.33 ppm up to 2690 ppm. How it is done: as §1, §2
The medium was removed by suction. After washing three times with the buffer (phosphate buffer solution 50 mM, pH 6.8), the cells were lysed by addition of 1 N NaOH, and the absorbance was measured at 475 nm. By having the obtained value as a relative value of the melanin content, the ratio of melanin content (%) for a group added with the test compound compared to a group not added with the test compound (i.e. only the solvent was added) was calculated. Lower ratio of melanin content means the higher inhibition effect on melanin production.
By using the measured value of melanin content that was obtained according to the measurement method above, percentage ratio of the melanin content was calculated by dividing the melanin content in the cells added with 4-trans-L-hydroxyproline, 4-trans-D-hydroxyproline, 4-cis-L-hydroxyproline, or 4-cis-D-hydroxyproline by the melanin content in the cells for control experiment, and the resulting value was taken as a ratio of melanin content.
as §3, §4

Data set [3] relates to Chinese hamster V79 cells. The conditions noted are these: cited from earlier work.
The mark [4] stands for this setting: FIG. 2, 100 ppm single compound, duplicate.

In the case of `O=C(O)[C@H]1C[C@@H](O)CN1` (stereo in doubt) [4-cis-D-hydroxyproline], the “number of cells when the control was represented as 100%” value (shortened to “number of cells … as 100%”) in data set [1] (FIG. 1, 3.33 ppm, 3 days) worked out at 97%; in data set [1] (FIG. 1, 11.1 ppm, 3 days), 98%; in data set [1] (FIG. 1, 33.3 ppm, 3 days), 101%; in data set [1] (FIG. 1, 333 ppm, 3 days), 92%; in data set [1] (FIG. 3, 33.3 ppm, duplicate) it was 93%; in data set [1] (FIG. 3, 50 ppm, duplicate), 92%. Besides, the “number of cells … as 100%” value in data set [1] (FIG. 3, 100 ppm, duplicate) was 91%; in data set [1] (FIG. 3, 333 ppm, duplicate), 88%. The “concentration up to which the number of cells was not significantly different from the control (no effect on survival)” value in data set [1] (FIG. 1, 3 days) is reported as no more than 333 ppm. Besides, the “effect on reducing melanin content (conclusion)” value in data set [2] (FIG. 1) is recorded as “effect on reducing melanin content in a concentration-dependent manner”. For the same molecule, the melanin content ratio is 100% in data set [2] (FIG. 1, 3.33 ppm, 3 days); 98% in data set [2] (FIG. 1, 11.1 ppm, 3 days); 96% in data set [2] (FIG. 1, 33.3 ppm, 3 days); 32% in data set [2] (FIG. 1, 333 ppm, 3 days); 90% in data set [2] (FIG. 2, 33.3 ppm, duplicate); 85% in data set [2] (FIG. 2, 50 ppm, duplicate). Besides, the melanin content ratio came to 72% in data set [2] (setting [4]); 32% in data set [2] (FIG. 2, 333 ppm, duplicate); 92% in data set [2] (FIG. 3, 33.3 ppm, duplicate); 84% in data set [2] (FIG. 3, 50 ppm, duplicate); 75% in data set [2] (FIG. 3, 100 ppm, duplicate); 37% in data set [2] (FIG. 3, 333 ppm, duplicate). Further, the “inhibition of melanin synthesis / melanin content (conclusion)” value in data set [2] (FIG. 2, 4-cis-D starting from 33.3 ppm, mixture with same amount of 4-cis-D) is listed as “prominently inhibit melanin synthesis in a concentration-dependent manner”.

Turning to `O=C(O)[C@@H]1C[C@H](O)CN1` (stereo in doubt) [4-cis-L-hydroxyproline], the “number of cells … as 100%” value in data set [1] (FIG. 1, 3.33 ppm, 3 days) came to 93%; in data set [1] (FIG. 1, 11.1 ppm, 3 days) it was 92%; in data set [1] (FIG. 1, 33.3 ppm, 3 days), 84%; in data set [1] (FIG. 2, 33.3 ppm, duplicate), 97%; in data set [1] (FIG. 2, 50 ppm, duplicate) it was 93%; in data set [1] (setting [4]), 95%. The “number of cells … as 100%” value in data set [1] (FIG. 2, 333 ppm, duplicate) was 89%. In addition, in data set [1] (FIG. 1, 3 days), the “concentration up to which the number of cells was not significantly different from the control (no effect on survival)” value is “up to 33.3 ppm”. The “effect on reducing melanin content (conclusion)” value in data set [2] (FIG. 1) is reported as “effect on reducing melanin content in a concentration-dependent manner”. For the same molecule, the melanin content ratio in data set [2] (FIG. 1, 3.33 ppm, 3 days) worked out at 92%; in data set [2] (FIG. 1, 11.1 ppm, 3 days), 83%; in data set [2] (FIG. 1, 33.3 ppm, 3 days), 30%.

Turning to `O=C(O)[C@H]1C[C@H](O)CN1` (stereo in doubt) [4-trans-D-hydroxyproline], the “number of cells … as 100%” value is recorded as 98% in data set [1] (FIG. 1, 3.33 ppm, 3 days); 100% in data set [1] (FIG. 1, 11.1 ppm, 3 days); 101% in data set [1] (FIG. 1, 33.3 ppm, 3 days); 105% in data set [1] (FIG. 1, 333 ppm, 3 days); 109% in data set [1] (FIG. 1, 2690 ppm, 3 days). Further, in data set [2] (FIG. 1), the “effect on reducing melanin content (conclusion)” value is reported as “no effect on reducing melanin content”. Moreover, the melanin content ratio in data set [2] (FIG. 1, 3.33 ppm, 3 days) worked out at 97%; in data set [2] (FIG. 1, 11.1 ppm, 3 days) it was 99%; in data set [2] (FIG. 1, 33.3 ppm, 3 days) it was 99%; in data set [2] (FIG. 1, 333 ppm, 3 days), 101%; in data set [2] (FIG. 1, 2690 ppm, 3 days), 110%.

For the molecule `O=C(O)[C@@H]1C[C@@H](O)CN1` (stereo in doubt) [4-trans-L-hydroxyproline], the “number of cells … as 100%” value came out at 95% in data set [1] (FIG. 1, 3.33 ppm, 3 days); 103% in data set [1] (FIG. 1, 11.1 ppm, 3 days); 99% in data set [1] (FIG. 1, 33.3 ppm, 3 days); 101% in data set [1] (FIG. 1, 333 ppm, 3 days); 94% in data set [1] (FIG. 1, 2690 ppm, 3 days); 95% in data set [1] (FIG. 2, 33.3 ppm, duplicate). In addition, the “number of cells … as 100%” value in data set [1] (FIG. 2, 50 ppm, duplicate) was 100%; in data set [1] (setting [4]), 98%; in data set [1] (FIG. 2, 333 ppm, duplicate), 102%; in data set [1] (FIG. 3, 333 ppm, duplicate), 100%; in data set [1] (FIG. 3, 480 ppm, duplicate), 96%; in data set [1] (FIG. 3, 666 ppm, duplicate), 102%. The “number of cells … as 100%” value in data set [1] (FIG. 3, 1332 ppm, duplicate) is 99%. Further, the “effect on reducing melanin content (conclusion)” value in data set [2] (FIG. 1) is “no effect on reducing melanin content”. Also, the melanin content ratio turned out to be 103% in data set [2] (FIG. 1, 3.33 ppm, 3 days); 108% in data set [2] (FIG. 1, 11.1 ppm, 3 days); 105% in data set [2] (FIG. 1, 33.3 ppm, 3 days); 104% in data set [2] (FIG. 1, 333 ppm, 3 days); 107% in data set [2] (FIG. 1, 2690 ppm, 3 days); 103% in data set [2] (FIG. 2, 33.3 ppm, duplicate). Further, the melanin content ratio in data set [2] (FIG. 2, 50 ppm, duplicate) stood at 104%; in data set [2] (setting [4]), 108%; in data set [2] (FIG. 2, 333 ppm, duplicate), 112%; in data set [2] (FIG. 3, 333 ppm, duplicate), 103%; in data set [2] (FIG. 3, 480 ppm, duplicate), 99%; in data set [2] (FIG. 3, 666 ppm, duplicate), 107%. Besides, in data set [2] (FIG. 3, 1332 ppm, duplicate), the melanin content ratio came out at 102%.

Regarding `Oc1ccc(O)cc1` [Hydroquinone, hydroquinone], the mutagenic activity entry in data set [3] is reported as “mutagenic activity”.
